Experimental data as given in ChEMBL document CHEMBL1201862, “PubChem BioAssay data set” (2004).
Where a name gives a salt, the structure may show the parent alone. The source made the active and inactive calls.

What was measured:
[1] = target: T1, Heat shock factor protein 1 (Mus musculus, UniProt P38532); test: enhancement of HSF1-driven luciferase signal – cell-based, NIH3T3, luminescence, dose retest, confirmation (AID 435004); type: functional;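 also: stress induced by proteasome inhibitor MG132 added 30 min after compound; luciferase reporter driven by HSF1 response element in NIH3T3 cells; actives raise luminescence as potentiators of the MG132 stress response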
T1 sequence (P38532 whole entry): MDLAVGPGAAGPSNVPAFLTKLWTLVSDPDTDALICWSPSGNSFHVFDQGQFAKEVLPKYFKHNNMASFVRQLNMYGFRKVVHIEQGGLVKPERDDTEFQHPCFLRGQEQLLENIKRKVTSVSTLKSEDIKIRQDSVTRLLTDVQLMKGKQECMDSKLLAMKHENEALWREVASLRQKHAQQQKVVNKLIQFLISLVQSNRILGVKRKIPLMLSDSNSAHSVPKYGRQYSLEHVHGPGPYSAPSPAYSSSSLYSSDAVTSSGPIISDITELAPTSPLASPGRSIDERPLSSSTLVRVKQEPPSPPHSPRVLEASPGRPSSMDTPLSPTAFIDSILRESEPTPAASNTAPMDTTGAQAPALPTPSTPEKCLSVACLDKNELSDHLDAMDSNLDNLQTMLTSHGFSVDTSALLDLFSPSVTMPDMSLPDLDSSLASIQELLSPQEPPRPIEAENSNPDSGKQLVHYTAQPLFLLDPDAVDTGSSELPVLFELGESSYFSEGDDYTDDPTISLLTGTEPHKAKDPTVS

[2] = target: Voltage-gated inwardly rectifying potassium channel KCNH2 (Homo sapiens, UniProt Q12809); conditions: Potency;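 also: confirmatory quantitative high-throughput screen measuring inhibition of hERG channel activity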
Chain of Voltage-gated inwardly rectifying potassium channel KCNH2 (Q12809 whole entry): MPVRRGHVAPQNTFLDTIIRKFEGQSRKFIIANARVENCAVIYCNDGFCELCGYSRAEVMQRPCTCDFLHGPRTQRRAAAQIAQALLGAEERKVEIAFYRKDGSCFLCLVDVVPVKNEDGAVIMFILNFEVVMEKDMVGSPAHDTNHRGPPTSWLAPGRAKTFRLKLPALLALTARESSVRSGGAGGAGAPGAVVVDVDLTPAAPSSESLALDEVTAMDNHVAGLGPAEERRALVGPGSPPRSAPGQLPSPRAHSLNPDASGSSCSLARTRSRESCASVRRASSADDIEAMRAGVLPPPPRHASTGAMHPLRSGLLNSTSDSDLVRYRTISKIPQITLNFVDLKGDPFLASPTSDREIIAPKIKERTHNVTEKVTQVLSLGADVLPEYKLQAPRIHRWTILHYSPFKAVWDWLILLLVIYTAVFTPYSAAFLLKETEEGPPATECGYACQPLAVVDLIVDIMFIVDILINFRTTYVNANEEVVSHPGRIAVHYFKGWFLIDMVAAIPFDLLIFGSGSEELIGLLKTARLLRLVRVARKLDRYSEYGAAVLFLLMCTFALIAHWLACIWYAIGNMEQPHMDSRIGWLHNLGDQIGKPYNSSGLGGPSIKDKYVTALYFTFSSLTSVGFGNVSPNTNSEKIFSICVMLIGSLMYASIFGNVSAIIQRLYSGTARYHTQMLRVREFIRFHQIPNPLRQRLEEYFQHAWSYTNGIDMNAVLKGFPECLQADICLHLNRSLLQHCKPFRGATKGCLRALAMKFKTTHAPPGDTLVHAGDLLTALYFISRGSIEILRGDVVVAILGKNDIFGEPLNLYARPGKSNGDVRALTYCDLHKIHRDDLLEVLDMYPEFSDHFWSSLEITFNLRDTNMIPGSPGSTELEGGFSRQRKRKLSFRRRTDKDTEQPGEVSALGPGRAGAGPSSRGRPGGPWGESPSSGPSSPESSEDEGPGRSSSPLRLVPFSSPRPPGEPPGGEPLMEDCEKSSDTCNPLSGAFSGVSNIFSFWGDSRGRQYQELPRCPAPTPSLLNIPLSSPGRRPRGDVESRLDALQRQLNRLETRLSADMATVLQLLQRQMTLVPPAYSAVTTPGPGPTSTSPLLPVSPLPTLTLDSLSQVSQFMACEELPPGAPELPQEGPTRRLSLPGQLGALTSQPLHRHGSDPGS

[3] = decrease of insulin promoter-GFP reporter – imaging, high-content screening, mouse beta cells (AID 1628); type: functional; conditions: MIN6
BJ [4] = test: BJ-TERT fibroblast viability loss – cell-based, RAS-independent, luminescence, dose response (AID 1933); type: functional; conditions: Homo sapiens
[5] = MIN6 cell viability loss – mouse insulinoma, cytotoxicity control, dose response (AID 2122); type: functional;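 also: confirmatory high-throughput counterscreen run to flag cytotoxic compounds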
BJ [6] = test: cells; type: functional, cell-based; conditions: Homo sapiens
BJ [7] = test: BJ-TERT-LT-ST fibroblast viability loss – cell-based, RAS-independent, luminescence, dose response (AID 1935); type: functional; conditions: Homo sapiens;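 also: BJ fibroblasts immortalized with TERT plus LT and ST oncogenes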
[8] = DRD fibroblast viability loss – cell-based, non-viral oncogenic, luminescence, dose response (AID 1934); type: functional; conditions: Homo sapiens
BJ [9] = test: growth inhibition of engineered Ras-driven BJ cells – cell-based, alamar blue fluorescence, cherrypicked samples, dose response (AID 2631); type: functional; conditions: Homo sapiens;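 also: confirmatory dose-response assay in RAS-dependent BJ fibroblasts engineered with TERT, LT and ST, with cytotoxicity read by fluorescence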
INS1 = test: INS-1E survival protection against cytokine death – cell-based, luminescence, retest, dose response (AID 449756); type: functional; conditions: Rattus norvegicus;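 also: cell death triggered by IL-1 beta plus TNF-alpha plus IFN-gamma mixture; protective hits raise ATP signal compared with cytokine alone wells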
[10] = THP-1 cell cytotoxicity, dose response, cytotoxicity control for non-replicating M. tuberculosis project (AID 489025); type: functional
[11] = HepG2 cell cytotoxicity, dose response, cytotoxicity control for non-replicating M. tuberculosis project (AID 489018); type: functional; conditions: Mycobacterium tuberculosis
[12] = target: T2, Ubiquitin-conjugating enzyme E2 N (Homo sapiens, UniProt P61088); type: functional;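 also: Dose-response confirmation in a TR-FRET assay detecting UBC13-driven polyubiquitin chain formation, inhibition measured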
T2 sequence (P61088 whole entry): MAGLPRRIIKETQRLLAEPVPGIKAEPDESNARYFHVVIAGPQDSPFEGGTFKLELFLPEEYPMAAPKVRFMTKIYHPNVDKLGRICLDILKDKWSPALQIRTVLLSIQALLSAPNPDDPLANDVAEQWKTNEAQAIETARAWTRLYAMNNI

[13] = Vero E6 cell cytotoxicity, dose response, cytotoxicity control for non-replicating M. tuberculosis project, secondary assay (AID 492998); type: functional, VeroE6; conditions: Vero C1008
cells = type: functional
Insulin-degrading enzyme [14] = target: T3, Insulin-degrading enzyme (Homo sapiens, UniProt P14735); test: recombinant IDE activation, cell-free – biochemical, fluorescence polarization, counter-screen for IDE activator project, dose response (AID 588681)
T3 sequence (P14735 whole entry): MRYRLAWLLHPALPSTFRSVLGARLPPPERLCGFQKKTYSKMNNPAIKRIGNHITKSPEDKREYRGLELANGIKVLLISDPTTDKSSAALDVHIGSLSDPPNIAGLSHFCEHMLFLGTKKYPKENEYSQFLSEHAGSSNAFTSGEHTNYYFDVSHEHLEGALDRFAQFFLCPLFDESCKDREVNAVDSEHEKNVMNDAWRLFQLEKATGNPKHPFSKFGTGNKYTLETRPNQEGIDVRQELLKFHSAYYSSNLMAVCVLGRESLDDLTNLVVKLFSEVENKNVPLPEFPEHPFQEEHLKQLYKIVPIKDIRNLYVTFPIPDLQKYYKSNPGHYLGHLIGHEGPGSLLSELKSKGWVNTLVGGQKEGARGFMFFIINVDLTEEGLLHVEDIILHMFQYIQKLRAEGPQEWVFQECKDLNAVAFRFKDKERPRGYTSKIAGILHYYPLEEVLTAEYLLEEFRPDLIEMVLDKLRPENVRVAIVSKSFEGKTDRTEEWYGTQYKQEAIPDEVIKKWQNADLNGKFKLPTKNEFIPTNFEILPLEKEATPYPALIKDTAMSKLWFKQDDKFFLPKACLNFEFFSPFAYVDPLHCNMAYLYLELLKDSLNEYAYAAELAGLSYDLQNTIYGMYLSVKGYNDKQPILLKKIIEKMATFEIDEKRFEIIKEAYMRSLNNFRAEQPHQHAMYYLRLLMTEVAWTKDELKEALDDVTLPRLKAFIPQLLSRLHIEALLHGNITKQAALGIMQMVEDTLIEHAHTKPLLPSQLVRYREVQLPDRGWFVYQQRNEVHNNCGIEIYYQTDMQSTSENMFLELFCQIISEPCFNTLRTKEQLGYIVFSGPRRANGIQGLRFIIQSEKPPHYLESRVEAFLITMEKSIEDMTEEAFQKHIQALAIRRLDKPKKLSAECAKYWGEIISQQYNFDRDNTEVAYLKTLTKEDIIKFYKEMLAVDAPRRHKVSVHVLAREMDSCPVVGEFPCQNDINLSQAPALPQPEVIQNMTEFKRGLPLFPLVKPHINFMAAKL

Insulin-degrading enzyme [15] = target: T3, Insulin-degrading enzyme; test: cellular IDE activation of Abeta substrate cleavage – fluorescence polarization, HEK cells, dose response (AID 588439); type: functional, cell-based
HEK293 [16] = test: membrane integrity loss in HEK cells – cell-based, fluorescence, cytotoxicity control for IDE activator project, dose response (AID 588440); type: functional; conditions: Homo sapiens;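 also: cytotoxicity by LDH release measuring loss of membrane integrity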
HEK293 [17] = test: optical interference in Abeta FP readout, dose response, artefact control for IDE activator project, biochemical, fluorescence polarization (AID 588442); type: functional, cell-based; conditions: Homo sapiens
[18] = target: T4, Methionyl-tRNA synthetase, putative (Trypanosoma brucei brucei, UniProt Q38C91); type: functional, Trypanosoma brucei brucei strain 927/4 GUTat10.1
T4 sequence (Q38C91 whole entry): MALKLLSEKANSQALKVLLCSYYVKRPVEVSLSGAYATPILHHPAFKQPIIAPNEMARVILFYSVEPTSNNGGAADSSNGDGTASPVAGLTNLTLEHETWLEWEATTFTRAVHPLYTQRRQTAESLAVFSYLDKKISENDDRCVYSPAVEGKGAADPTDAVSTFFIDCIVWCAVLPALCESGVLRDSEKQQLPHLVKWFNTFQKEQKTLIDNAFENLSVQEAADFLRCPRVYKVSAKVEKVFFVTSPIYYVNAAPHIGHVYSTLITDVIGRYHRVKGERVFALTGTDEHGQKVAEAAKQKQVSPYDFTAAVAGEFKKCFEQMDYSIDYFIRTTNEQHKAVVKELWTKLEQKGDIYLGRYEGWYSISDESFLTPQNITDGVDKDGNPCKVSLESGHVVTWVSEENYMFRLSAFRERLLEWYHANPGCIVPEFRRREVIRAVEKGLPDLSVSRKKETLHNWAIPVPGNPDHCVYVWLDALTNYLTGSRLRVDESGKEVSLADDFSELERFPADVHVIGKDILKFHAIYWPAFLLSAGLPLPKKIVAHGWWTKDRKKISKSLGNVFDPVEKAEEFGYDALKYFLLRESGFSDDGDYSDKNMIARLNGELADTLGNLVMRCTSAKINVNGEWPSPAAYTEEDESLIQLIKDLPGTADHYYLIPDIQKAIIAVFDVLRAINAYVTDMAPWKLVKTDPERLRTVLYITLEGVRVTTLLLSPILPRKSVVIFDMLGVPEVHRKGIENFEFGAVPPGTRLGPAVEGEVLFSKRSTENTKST

[19] = Counterscreen for inhibitors of Trypanosoma brucei methionyl tRNA synthetase (MetRS): Luminescence-based cell-based high throughput dose response assay to identify compounds that are cytotoxic to Jurkat human T lymphocyte cells.; type: functional
[20] = target: T4, Methionyl-tRNA synthetase, putative; type: functional, Trypanosoma brucei brucei strain 927/4 GUTat10.1; remark: listed apart in the source

For `COc1cccc(OC)c1OCCNCC1COc2ccccc2O1` (configuration not stated) [2- (2,6-DIMETHOXYPHENOXYETHYL)AMINOMETHYL-1,4-BENZODIOXANE HYDROCHLORIDE (WB 4101)], the EC50 [1] was > 260 µM (inactive) and the AC50 [2] was 11.2 µM (inconclusive).

With `CC(Oc1ccc(Cl)cc1Cl)c1nc(-c2ccc(NC(=O)c3cccnc3)cc2)no1` (configuration not stated) the IC50 [3] was 880 nM (active), the EC50 (BJ [4]) was > 150 µM (not active) and the IC50 [5] was 928 nM (active). The EC50 (BJ [6]) was 3.32 µM (active), the EC50 (BJ [7]) was > 150 µM (not active) and the EC50 [8] was 25.4 µM (active). For the same compound, the EC50 (BJ [9]) was > 66.7 µM (inactive) and the AC50 (INS1) was 610 nM (active).

With `Cc1c(CN2CCC(CO)(CCOc3ccccc3)CC2)[nH]c2ccc(Cl)cc12` the CC50 [10] was 17.9 µM (active), the CC50 [11] was 15.1 µM (active) and the IC50 [12] was > 20 µM (inactive). For the same compound, the CC50 [13] was 16.8 µM (active), the IC50 (cells) was 8.32 µM (active) and the EC50 (Insulin-degrading enzyme [14]) was > 54.7 µM (inactive). For the same compound, the EC50 (Insulin-degrading enzyme [15]) was 15.9 µM (inactive), the IC50 (HEK293 [16]) was 28.3 µM (inactive) and the EC50 (HEK293 [17]) was > 54.7 µM (inactive). For the same compound, the IC50 [18] was 38.8 µM (inactive), the IC50 [19] was 25.8 µM (inactive) and the IC50 [20] was 64.4 µM (inactive).
